Results as given in patent US4018801A, “Substituted oxirane compounds” (The Dow Chemical Company, priority 1975, dated 1977).

Legend:
Assay in all cases: Pre-emergent control of seed germination, soil drench
Assay type in all cases: in vivo
[1] = tested on: Soybeans; conditions: Table IV
[2] = tested on: Cotton; conditions: Table IV
Source text: (§1) Four parts by weight of the compound, 0.08 part of sorbitan trioleate (Span 85), and 0.02 part of a sorbitan monooleate polyoxyethylene derivative (Tween 80) are dipersed in 40 milliliters of acetone to produce a concentrate composition in the form of a water-dispersible liquid containing the predetermined oxirane compound as the sole active agent.
(§2) A portion of each of these concentrate compositions were separately dispersed in portions of water to provide aqueous compositions, containing 0.44 pound of the oxirane compound per 100 gallons of ultimate aqueous mixture.
(§3) The aqueous compositions were then employed for the treatment of seed beds of good agricultural soil which had been prepared and seeded with the seeds of various grass species and broadleaf plants. The grass species included white winter wheat, cultured rice, pigweeds, crabgrass, cheat grass, wild oats, Johnson grass, barnyard grass and yellow foxtail; and the broadleaf plants included corn. In the treating operations, a predetermined quantity of each of the compositions was applied to separate seedbeds as a soil drench at a rate of about 0.43 acre inch of aqueous composition per acre. The quantities were controlled to supply a substantial uniform dosage in a seedbed equivalent to 1.0, 2.0 and 5.0 pounds of the oxirane compound per acre. These dosages correspond, respectively, to a concentration, within the soil depth penetrated of about 1.6, 3.2 and 8.0 parts by weight of the oxirane compound per million parts by weight of soil. Other seedbeds were similarly seeded with the named plant species but were left untreated to serve as checks.
(§4) After about 2 weeks the seedbeds were examined to ascertain what control of the growth of seeds had been obtained.
(§5) Separate aqueous compositions containing the 2-(m-chlorophenyl)-2-(2,2,2-trichloroethyl)oxirane (Cmpd. A) and 2-(m-bromophenyl)-2-(2,2,2-trichloroethyl)oxirane (Cmpd. C) compounds of the present invention were prepared as in Example 32 for comparative per-emergence herbicide tests against noxious grass species with the known 2 -(p-chlorophenyl)-2-(2,2,2-trichloroethyl)oxirane (Cmpd. B) compound and 2-(p-bromophenyl)-2-(2,2,2-trichloroethyl)oxirane (Cmpd. D). The pre-emergence tests were conducted in Example 32 and the results of such tests are set forth below in Table III.
(§6) An aqueous composition containing 2-(α,α,α -trifluoro-m-tolyl)-2-(2,2,2-trichloroethyl)oxirane was prepared as described in Example 32. The composition was then employed according to the procedures of Example 32 except that lower concentrations of the oxirane compound were employed in the composition.
(§7) The percent control of the various plant species at the employed dosage rate of the 2-(α,α,α-trifluoro-m-tolyl)- 2-(2,2,2-trichloroethyl) supplied by the composition is set forth in the following Table IV.

[3] = tested on: Corn; conditions: Table IV
Source text: as §1, §2, §3
After about 2 weeks the seedbeds were examined to ascertain what control of the growth of seeds had been obtained. […]
as §6, §7

[4] = tested on: Johnson Grass; conditions: Table IV, Johnson Grass
Source text: as §1, §2, §3, §4
(§8) were prepared as in Example 32 and similarly employed for the pre-emergencetreatment of various plant species.
as §5, §6, §7

[5] = tested on: Crabgrass; conditions: Table IV, Crabgrass
Source text: as §1, §2, §3, §4, §8, §5, §6, §7

[6] = tested on: Beans; conditions: Table IV
Source text: as §1, §2, §3, §4, §6, §7

[7] = tested on: Cultured Rice; conditions: Table IV
Source text: as §1, §2, §3, §4, §6, §7

[8] = tested on: White Winter Wheat; conditions: Table IV
Source text: as §1, §2, §3, §4, §6, §7

[9] = tested on: Pigweeds; conditions: for Percent Pre-Emergent Control of Seed Germination: Table IV, Pigweeds
Source text: as §1, §2, §3, §4, §8, §6, §7

[10] = tested on: Barnyard Grass; conditions: for Percent Pre-Emergent Control of Seed Germination: Table IV, Barnyard Grass
Source text: as §1, §2, §3, §4, §8, §6, §7

[11] = tested on: Wild Oats; conditions: for Percent Pre-Emergent Control of Seed Germination: Table IV, Wild Oats
Source text: as §1, §2, §3, §4, §8, §6, §7

[12] = tested on: Yellow Foxtail; conditions: for Percent Pre-Emergent Control of Seed Germination: Table IV, Yellow Foxtail
Source text: as §1, §2, §3, §4, §8, §6, §7

[13] = tested on: Crabgrass; conditions: 20 pounds per acre

Structure (SMILES): FC(F)(F)c1cccc(C2(CC(Cl)(Cl)Cl)CO2)c1 (stereo not drawn) [Example 4, 2-(α,α,α -trifluoro-m-tolyl)-2-(2,2,2-trichloroethyl)oxirane]
- Percent Pre-Emergent Control of Seed Germination ([1]; 0.03 pounds): 0%
- Percent Pre-Emergent Control of Seed Germination ([1]; 0.07 pounds): 0%
- Percent Pre-Emergent Control of Seed Germination ([1]; 0.13 pounds): 100%
- Percent Pre-Emergent Control of Seed Germination ([1]; 0.25 pounds): 40%
- Percent Pre-Emergent Control of Seed Germination ([1]; 0.5 pounds): 50%
- Percent Pre-Emergent Control of Seed Germination ([1]; 1.0 pounds): 60%
- Percent Pre-Emergent Control of Seed Germination ([2]; 0.03 pounds): 0%
- Percent Pre-Emergent Control of Seed Germination ([2]; 0.07 pounds): 0%
- Percent Pre-Emergent Control of Seed Germination ([2]; 0.13 pounds): 0%
- Percent Pre-Emergent Control of Seed Germination ([2]; 0.25 pounds): 0%
- Percent Pre-Emergent Control of Seed Germination ([2]; 0.5 pounds): 30%
- Percent Pre-Emergent Control of Seed Germination ([2]; 1.0 pounds): 20%
- Percent Pre-Emergent Control of Seed Germination ([3]; 0.03 pounds): 0%
- Percent Pre-Emergent Control of Seed Germination ([3]; 0.07 pounds): 0%
- Percent Pre-Emergent Control of Seed Germination ([3]; 0.13 pounds): 0%
- Percent Pre-Emergent Control of Seed Germination ([3]; 0.25 pounds): 90%
- Percent Pre-Emergent Control of Seed Germination ([3]; 0.5 pounds): 95%
- Percent Pre-Emergent Control of Seed Germination ([3]; 1.0 pounds): 95%
- Percent Pre-Emergent Control of Seed Germination ([4]; 0.03 pounds): 0%
- Percent Pre-Emergent Control of Seed Germination ([4]; 0.07 pounds): 80%
- Percent Pre-Emergent Control of Seed Germination ([4]; 0.13 pounds): 100%
- Percent Pre-Emergent Control of Seed Germination ([4]; 0.25 pounds): 100%
- Percent Pre-Emergent Control of Seed Germination ([4]; 0.5 pounds): 100%
- Percent Pre-Emergent Control of Seed Germination ([4]; 1.0 pounds): 100%
- Percent Pre-Emergent Control of Seed Germination ([5]; 0.03 pounds): 60%
- Percent Pre-Emergent Control of Seed Germination ([5]; 0.07 pounds): 75%
- Percent Pre-Emergent Control of Seed Germination ([5]; 0.13 pounds): 100%
- Percent Pre-Emergent Control of Seed Germination ([5]; 0.25 pounds): 100%
- Percent Pre-Emergent Control of Seed Germination ([5]; 0.5 pounds): 100%
- Percent Pre-Emergent Control of Seed Germination ([5]; 1.0 pounds): 100%
- Percent Pre-Emergent Control of Seed Germination ([6]; 0.03 pounds): 30%
- Percent Pre-Emergent Control of Seed Germination ([6]; 0.07 pounds): 30%
- Percent Pre-Emergent Control of Seed Germination ([6]; 0.13 pounds): 30%
- Percent Pre-Emergent Control of Seed Germination ([6]; 0.25 pounds): 60%
- Percent Pre-Emergent Control of Seed Germination ([6]; 0.5 pounds): 70%
- Percent Pre-Emergent Control of Seed Germination ([6]; 1.0 pounds): 95%
- Percent Pre-Emergent Control of Seed Germination ([7]; 0.03 pounds): 0%
- Percent Pre-Emergent Control of Seed Germination ([7]; 0.07 pounds): 30%
- Percent Pre-Emergent Control of Seed Germination ([7]; 0.13 pounds): 100%
- Percent Pre-Emergent Control of Seed Germination ([7]; 0.25 pounds): 100%
- Percent Pre-Emergent Control of Seed Germination ([7]; 0.5 pounds): 100%
- Percent Pre-Emergent Control of Seed Germination ([7]; 1.0 pounds): 100%
- Percent Pre-Emergent Control of Seed Germination ([8]; 0.03 pounds): 0%
- Percent Pre-Emergent Control of Seed Germination ([8]; 0.07 pounds): 50%
- Percent Pre-Emergent Control of Seed Germination ([8]; 0.13 pounds): 100%
- Percent Pre-Emergent Control of Seed Germination ([8]; 0.25 pounds): 100%
- Percent Pre-Emergent Control of Seed Germination ([8]; 0.5 pounds): 100%
- Percent Pre-Emergent Control of Seed Germination ([8]; 1.0 pounds): 100%
- Percent Pre-Emergent Control of Seed Germination ([9]; 0.03 pounds): 0%
- Percent Pre-Emergent Control of Seed Germination ([9]; 0.07 pounds): 30%
- Percent Pre-Emergent Control of Seed Germination ([9]; 0.13 pounds): 50%
- Percent Pre-Emergent Control of Seed Germination ([9]; 0.25 pounds): 100%
- Percent Pre-Emergent Control of Seed Germination ([9]; 0.5 pounds): 100%
- Percent Pre-Emergent Control of Seed Germination ([9]; 1.0 pounds): 100%
- Percent Pre-Emergent Control of Seed Germination ([10]; 0.03 pounds): 50%
- Percent Pre-Emergent Control of Seed Germination ([10]; 0.07 pounds): 95%
- Percent Pre-Emergent Control of Seed Germination ([10]; 0.13 pounds): 95%
- Percent Pre-Emergent Control of Seed Germination ([10]; 0.25 pounds): 95%
- Percent Pre-Emergent Control of Seed Germination ([10]; 0.5 pounds): 95%
- Percent Pre-Emergent Control of Seed Germination ([10]; 1.0 pounds): 95%
- Percent Pre-Emergent Control of Seed Germination ([11]; 0.03 pounds): 30%
- Percent Pre-Emergent Control of Seed Germination ([11]; 0.07 pounds): 85%
- Percent Pre-Emergent Control of Seed Germination ([11]; 0.13 pounds): 95%
- Percent Pre-Emergent Control of Seed Germination ([11]; 0.25 pounds): 95%
- Percent Pre-Emergent Control of Seed Germination ([11]; 0.5 pounds): 95%
- Percent Pre-Emergent Control of Seed Germination ([11]; 1.0 pounds): 95%
- Percent Pre-Emergent Control of Seed Germination ([12]; 0.03 pounds): 30%
- Percent Pre-Emergent Control of Seed Germination ([12]; 0.07 pounds): 0%
- Percent Pre-Emergent Control of Seed Germination ([12]; 0.13 pounds): 95%
- Percent Pre-Emergent Control of Seed Germination ([12]; 0.25 pounds): 100%
- Percent Pre-Emergent Control of Seed Germination ([12]; 0.5 pounds): 100%
- Percent Pre-Emergent Control of Seed Germination ([12]; 1.0 pounds): 100%

Structure (SMILES): ClC(Cl)(Cl)CC1(c2cccc(OCc3ccccc3)c2)CO1 (centres unmarked) [Example 16, 2-(m-(benzyloxy)phenyl)-2-(2,2,2-trichloroethyl)oxirane]
- pre-emergence control [13]: substantially complete control
- pre-emergence control ([9]; pigweed, 20 pounds per acre): substantially complete control
- pre-emergence control ([10]; barnyard grass, 20 pounds per acre): substantially complete control
- pre-emergence control ([11]; wild oats, 20 pounds per acre): substantially complete control
- pre-emergence control ([12]; yellow foxtail, 20 pounds per acre): substantially complete control
